Values quoted from earlier work in patent US12715832B2, “Co-crystal of coenzyme QH and nicotinamide, preparation method therefor and use thereof” (COCRYSTAL TECHNOLOGY (JIAXING) CO., LTD, priority 2021, dated 2026).

Conditions: in the air at 25° C. for 28 days

coenzyme QH oxidized: about 6%
SMILES: COc1c(O)c(C)c(C/C=C(\C)CC/C=C(\C)CC/C=C(\C)CC/C=C(\C)CC/C=C(\C)CC/C=C(\C)CC/C=C(\C)CC/C=C(\C)CC/C=C(\C)CCC=C(C)C)c(O)c1OC [stable polymorph of coenzyme QH, coenzyme QH]
